According to patent EP0745595A1, “3-(3-Aryloxyphenyl)-1-(substituted methyl)-s-triazine-2,4,6-oxo or thiotrione herbicidal agents” (American Cyanamid Company, priority 1995, dated 1996):

Assays:
Format in all cases: in vivo
[1] = system: CHENOPODIUM ALBUM, L.; assay: Postemergence herbicidal evaluation, CHEAL (Lambsquarters, Common)
Summary of the method: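 Seedlings of common lambsquarters (Chenopodium album) were raised in jiffy flats for roughly two weeks, then sprayed postemergence through a nozzle at 40 psi with test compound dispersed in 50/50 acetone/water containing 0.5% TWEEN®20 surfactant. Plants were kept on greenhouse benches under standard care and rated visually on a 0-9 scale versus controls.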

[2] = system: AMBROSIA ARTEMISIIFOLIA, L.; assay: Postemergence herbicidal evaluation, AMBEL (Ragweed, Common)
Summary of the method: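 Common ragweed (Ambrosia artemisiifolia) seedlings were raised in jiffy flats for roughly two weeks, then sprayed postemergence through a nozzle at 40 psi with the test compound dispersed in 50/50 acetone/water carrying 0.5% TWEEN®20. The plants were kept on greenhouse benches under conventional care. Four to five weeks later, injury was rated visually on a 0-9 scale, and repeat tests were averaged.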

[3] = system: CHENOPODIUM ALBUM, L.; assay: Preemergence herbicidal evaluation, CHEAL (Lambsquarters, Common); conditions: rated four to five weeks after treatment
Summary of the method: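 Greenhouse preemergence test; treated soil cups received compound in aqueous acetone (about 0.125 to 0.50 kg/ha) right after sowing and were assessed visually 4-5 weeks later on a 0-9 scale compared with control plants.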

[4] = system: IPOMOEA SPP.; assay: Postemergence herbicidal evaluation, IPOSS (Morningglory spp.)
Summary of the method: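 Seedlings of morningglory (Ipomoea spp.) were raised in jiffy flats for roughly two weeks. They were then sprayed postemergence through a nozzle at 40 psi with test compound dispersed in 50/50 acetone/water containing 0.5% TWEEN®20 surfactant. Plants were kept on greenhouse benches under standard care and visually rated 0-9 against controls four to five weeks after treatment.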

[5] = system: CASSIA OBTUSIFOLIA, L.; assay: Postemergence herbicidal evaluation, CASOB (Sicklepod); design: key to CASOB rating / Herbicidal effect rating, CASOB / CASOB: 0-9 visual rating scale vs untreated control
Summary of the method: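 Seedlings about two weeks old were sprayed with compound in 50/50 acetone/water containing 0.5% Tween 20 at about 0.125-0.500 kg/ha and kept in the greenhouse. Visual injury was rated on a 0-9 scale versus control 4-5 weeks after treatment; repeat tests were averaged.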

[6] = system: ZEA MAYS L.; assay: Postemergence herbicidal evaluation, ZEAMX (Corn, Field)
Experimental: In the tests, seedling plants are grown in jiffy flats for about two weeks. The test compounds are dispersed in 50/50 acetone/water mixtures containing 0.5% TWEEN®20, a polyoxyethylene sorbitan monolaurate surfactant of Atlas Chemical Industries, […] to the plants through a spray nozzle operating at 40 psi for a predetermined time. After spraying, the plants are placed on greenhouse benches and are cared for in the usual manner, commensurate with conventional greenhouse practices. From four to five weeks after treatment, the seedling plants are examined and rated according to the rating system set forth below. Where more than one test is involved for a given compound, the data are averaged.
(§1) Plant species employed in these evaluations are reported by header abbreviation, common name and scientific name.
(§2) Results of herbicide evaluation are expressed on a rating scale (0-9). The scale is based upon a visual observation of plant stand, vigor, malformation, size, chlorosis and overall plant appearance as compared with a control.

[7] = system: TRITICUM AESTIVUM, CV. APOLLO; assay: Postemergence herbicidal evaluation, TRZAWO (Wheat, Winter, CV. APOLLO)
Experimental: In the tests, seedling plants are grown in jiffy flats for about two weeks. The test compounds are dispersed in 50/50 acetone/water mixtures containing 0.5% TWEEN®20, a polyoxyethylene sorbitan monolaurate surfactant of Atlas Chemical Industries, […] through a spray nozzle operating at 40 psi for a predetermined time. After spraying, the plants are placed on greenhouse benches and are cared for in the usual manner, commensurate with conventional greenhouse practices. From four to five weeks after treatment, the seedling plants are examined and rated according to the rating system set forth below. Where more than one test is involved for a given compound, the data are averaged.
as §1, §2

[8] = system: CASSIA OBTUSIFOLIA, L.; assay: Preemergence herbicidal evaluation, CASOB (Sicklepod); conditions: rated four to five weeks after treatment
Summary of the method: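 Seeds of various monocot and dicot plants, including sicklepod, were each mixed with potting soil and sown on roughly one inch of soil in separate pint cups for preemergence testing. Treated cups were kept on greenhouse benches, watered and maintained conventionally. Four to five weeks after treatment, each cup was visually rated on a 0-9 scale against a control.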

[9] = system: IPOMOEA SPP.; assay: Preemergence herbicidal evaluation, IPOSS (Morningglory spp.); conditions: rated four to five weeks after treatment
Text: as §2
(§3) The preemergence herbicidal activity of the test compounds of the present invention is exemplified by the following tests in which the seeds of a variety of monocotyledonous and dicotyledonous plants are separately mixed with potting soil and planted on top of approximately one inch of soil in separate pint cups. […] The treated cups are then placed on greenhouse benches, watered and cared for in accordance with conventional greenhouse procedures. From four to five weeks after treatment, the tests are terminated and each cup is examined and rated according to the rating system provided in Example 40.
(§4) The compounds evaluated are reported by compound number given in Example 40.

[10] = system: SETARIA VIRIDIS, (L) BEAU; assay: Postemergence herbicidal evaluation, SETVI (Foxtail, Green); design: key to SETVI rating / Herbicidal effect rating, SETVI / SETVI: 0-9 visual rating scale vs untreated control
Summary of the method: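 Greenhouse postemergence test. Seedlings (~2 wk) sprayed at 40 psi; dose ~0.125–0.500 kg/ha in acetone/water (1:1), 0.5% TWEEN 20. Scored 0–9 at 4–5 wk.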

[11] = system: ORYZA SATIVA, L. TEBONNET; assay: Rice tolerance to post-transplant applications under flooded paddy conditions, ORYSAT (Rice, Tebonnet); conditions: post-transplant rice, 3-4 weeks after treatment
Summary of the method: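 Two ten-day-old Tebonnet rice seedlings were transplanted into silt loam and kept flooded 1.5 to 3 cm deep. Three days after transplanting, the flood surface received the compound in aqueous/acetone 50/50 v/v at about 0.5, 0.25, 0.125 or 0.063 kg/ha. Injury was rated visually on a 0-9 scale versus control after 3-4 weeks.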

[12] = system: ABUTILON THEOPHRASTI, MEDIC.; assay: Postemergence herbicidal evaluation, ABUTH (Velvetleaf)
Summary of the method: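 Velvetleaf (Abutilon theophrasti) seedlings were raised in jiffy flats for about two weeks and then sprayed postemergence. The test compound was dispersed in a 50/50 acetone/water mixture containing 0.5% TWEEN®20 and applied through a nozzle operating at 40 psi. Plants were kept on greenhouse benches and rated 0-9 four to five weeks after treatment.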

[13] = system: ZEA MAYS L.; assay: Preemergence herbicidal evaluation, ZEAMX (Corn, Field); conditions: rated four to five weeks after treatment
Summary of the method: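 Corn (Zea mays) seeds were mixed with potting soil and planted on about one inch of soil in pint cups, then treated preemergence. Cups were kept on greenhouse benches, watered and maintained conventionally, and after four to five weeks were visually rated on a 0-9 scale versus an untreated control.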

[14] = system: AMBROSIA ARTEMISIIFOLIA, L.; assay: Preemergence herbicidal evaluation, AMBEL (Ragweed, Common); conditions: rated four to five weeks after treatment
Text: as §2, §3, §4

[15] = system: TRITICUM AESTIVUM, CV. APOLLO; assay: Preemergence herbicidal evaluation, TRZAWO (Wheat, Winter, CV. APOLLO); conditions: rated four to five weeks after treatment
Text: as §2, §3, §4

[16] = system: SAGITTARIA PYGMAEA, L.; assay: Preemergence weed control under flooded paddy conditions, SAGPY (Arrowhead (Pygmaea)); conditions: preemergence, 3-4 weeks after treatment
Summary of the method: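 Seeds or propagules sown in top 0.5 cm of silt loam in undrained containers, flooded 1.5 to 3 cm throughout. Compounds in aqueous/acetone 50/50 v/v pipetted into flood water at about 0.5, 0.25, 0.125 and 0.063 kg/ha. Visual 0-9 rating versus control after three to four weeks in greenhouse.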

[17] = system: ABUTILON THEOPHRASTI, MEDIC.; assay: Preemergence herbicidal evaluation, ABUTH (Velvetleaf); conditions: rated four to five weeks after treatment
Text: as §2, §3, §4

[18] = system: ECHINOCHLOA CRUS-GALLI, (L) BEAU; assay: Preemergence herbicidal evaluation, ECHCG (Barnyardgrass); conditions: rated four to five weeks after treatment
Summary of the method: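 Barnyardgrass seeds were mixed with potting soil and planted on about one inch of soil in pint cups for preemergence testing. Treated cups were kept on greenhouse benches, watered and maintained by standard greenhouse practice. After four to five weeks, each cup was visually rated on a 0-9 scale against an untreated control.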

COC(=O)Cn1c(=O)n(C)c(=O)n(-c2cc(Oc3ncc(C(F)(F)F)cc3Cl)ccc2Br)c1=O [Compound 45]
CHEAL rating ([1]; Rate 0.125 kg/ha): 9.0
CHEAL rating ([1]; Rate 0.250 kg/ha): 9.0
CHEAL rating ([1]; Rate 0.500 kg/ha): 9.0
AMBEL rating ([2]; Rate 0.125 kg/ha): 9.0
AMBEL rating ([2]; Rate 0.250 kg/ha): 9.0
AMBEL rating ([2]; Rate 0.500 kg/ha): 9.0
CHEAL herbicidal rating ([3]; Rate 0.125 kg/ha): 9.0
CHEAL herbicidal rating ([3]; Rate 0.250 kg/ha): 9.0
CHEAL herbicidal rating ([3]; Rate 0.500 kg/ha): 9.0
IPOSS rating ([4]; Rate 0.125 kg/ha): 9.0
IPOSS rating ([4]; Rate 0.250 kg/ha): 9.0
IPOSS rating ([4]; Rate 0.500 kg/ha): 9.0
CASOB rating ([5]; Rate 0.125 kg/ha): 9.0
CASOB rating ([5]; Rate 0.250 kg/ha): 9.0
CASOB rating ([5]; Rate 0.500 kg/ha): 9.0
ZEAMX rating ([6]; Rate 0.125 kg/ha): 9.0
ZEAMX rating ([6]; Rate 0.250 kg/ha): 9.0
ZEAMX rating ([6]; Rate 0.500 kg/ha): 9.0
TRZAWO rating ([7]; Rate 0.125 kg/ha): 9.0
TRZAWO rating ([7]; Rate 0.250 kg/ha): 9.0
TRZAWO rating ([7]; Rate 0.500 kg/ha): 9.0
CASOB herbicidal rating ([8]; Rate 0.125 kg/ha): 0.0
CASOB herbicidal rating ([8]; Rate 0.250 kg/ha): 0.0
CASOB herbicidal rating ([8]; Rate 0.500 kg/ha): 0.0
IPOSS herbicidal rating ([9]; Rate 0.125 kg/ha): 0.0
IPOSS herbicidal rating ([9]; Rate 0.250 kg/ha): 0.0
IPOSS herbicidal rating ([9]; Rate 0.500 kg/ha): 0.0
SETVI rating ([10]; Rate 0.125 kg/ha): 9.0
SETVI rating ([10]; Rate 0.250 kg/ha): 9.0
SETVI rating ([10]; Rate 0.500 kg/ha): 9.0
Herbicidal effect rating, ORYSAT ([11]; 0.063 kg/ha): 2.0
Herbicidal effect rating, ORYSAT ([11]; 0.125 kg/ha): 2.0
Herbicidal effect rating, ORYSAT ([11]; 0.250 kg/ha): 4.0
Herbicidal effect rating, ORYSAT ([11]; 0.500 kg/ha): 6.0
ABUTH rating ([12]; Rate 0.125 kg/ha): 9.0
ABUTH rating ([12]; Rate 0.250 kg/ha): 9.0
ABUTH rating ([12]; Rate 0.500 kg/ha): 9.0
ZEAMX herbicidal rating ([13]; Rate 0.125 kg/ha): 0.0
ZEAMX herbicidal rating ([13]; Rate 0.250 kg/ha): 0.0
ZEAMX herbicidal rating ([13]; Rate 0.500 kg/ha): 0.0
AMBEL herbicidal rating ([14]; Rate 0.125 kg/ha): 0.0
AMBEL herbicidal rating ([14]; Rate 0.250 kg/ha): 0.0
AMBEL herbicidal rating ([14]; Rate 0.500 kg/ha): 0.0

Cn1c(=O)n(CC(=O)OC(C)(C)C)c(=O)n(-c2cc(Oc3c(F)cc(C(F)(F)F)cc3Cl)ccc2F)c1=O [Compound 41, Tert-butyl 3-{[5-(2-chloro-α,α,α,6-tetra-fluoro-p-tolyl)oxy]-2-fluorophenyl}tetra-hydro-5-methyl-2,4,6-trioxo-s-triazine-1(2H)-acetate]
TRZAWO herbicidal rating ([15]; Rate 0.125 kg/ha): 0.0
TRZAWO herbicidal rating ([15]; Rate 0.250 kg/ha): 0.0
TRZAWO herbicidal rating ([15]; Rate 0.500 kg/ha): 0.0
CHEAL herbicidal rating ([3]; Rate 0.125 kg/ha): 9.0
CHEAL herbicidal rating ([3]; Rate 0.250 kg/ha): 9.0
CHEAL herbicidal rating ([3]; Rate 0.500 kg/ha): 9.0
Herbicidal effect rating, ORYSAT ([11]; 0.063 kg/ha): 0.0
Herbicidal effect rating, ORYSAT ([11]; 0.125 kg/ha): 0.0
Herbicidal effect rating, ORYSAT ([11]; 0.250 kg/ha): 0.0
Herbicidal effect rating, ORYSAT ([11]; 0.500 kg/ha): 0.0
AMBEL herbicidal rating ([14]; Rate 0.125 kg/ha): 0.0
AMBEL herbicidal rating ([14]; Rate 0.250 kg/ha): 0.0
AMBEL herbicidal rating ([14]; Rate 0.500 kg/ha): 0.0
Herbicidal effect rating, SAGPY ([16]; 0.063 kg/ha): 0.0
Herbicidal effect rating, SAGPY ([16]; 0.125 kg/ha): 0.0
Herbicidal effect rating, SAGPY ([16]; 0.250 kg/ha): 0.0
Herbicidal effect rating, SAGPY ([16]; 0.500 kg/ha): 0.0
ABUTH herbicidal rating ([17]; Rate 0.125 kg/ha): 0.0
ABUTH herbicidal rating ([17]; Rate 0.250 kg/ha): 0.0
ABUTH herbicidal rating ([17]; Rate 0.500 kg/ha): 0.0
ECHCG herbicidal rating ([18]; Rate 0.125 kg/ha): 0.0
ECHCG herbicidal rating ([18]; Rate 0.250 kg/ha): 0.0
ECHCG herbicidal rating ([18]; Rate 0.500 kg/ha): 0.0
